Reference: patent publication US11834486B2, “Incretin analogs and uses thereof” (Eli Lilly and Company, priority 2017, dated 2023)
*1 amine or outer side, *2 acyl side, *3 side chain or, on linkers, in order; H or OH if unused. Where a SMILES comes first, the peptide text is derived from it. Side-chain parts run from the residue outwards. [ ]: non-standard residue; d: D form. The star is where a group is joined. C20 diacid = O=C(O)CCCCCCCCCCCCCCCCCCC(=O)*; αMePhe(2-F) = C[C@](N)(Cc1ccccc1F)C(=O)O; γGlu = O=C(O)[C@H](CCC(=O)[*:2])N[*:1]; AEEA = NCCOCCOCC(=O)O; Aib = CC(C)(N)C(=O)O

Target: T1, human GIP-R (Homo sapiens, UniProt P48546)
T1 construct: expressed in transfected cells; host or cells: HEK-293 clonal cell line
T1 sequence (P48546 22-466): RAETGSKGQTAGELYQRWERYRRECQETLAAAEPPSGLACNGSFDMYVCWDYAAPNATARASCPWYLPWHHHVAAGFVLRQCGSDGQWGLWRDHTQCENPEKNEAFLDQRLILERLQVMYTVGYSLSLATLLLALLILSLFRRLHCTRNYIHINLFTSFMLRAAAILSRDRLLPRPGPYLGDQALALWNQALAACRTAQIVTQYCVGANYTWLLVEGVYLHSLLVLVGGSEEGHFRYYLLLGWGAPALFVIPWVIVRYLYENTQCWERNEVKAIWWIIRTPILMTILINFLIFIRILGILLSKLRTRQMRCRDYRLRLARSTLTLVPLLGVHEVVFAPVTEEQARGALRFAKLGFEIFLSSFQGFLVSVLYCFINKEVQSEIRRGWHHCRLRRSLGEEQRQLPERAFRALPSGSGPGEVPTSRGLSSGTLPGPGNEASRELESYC
Assay: cAMP functional activity in GIP-R-expressing HEK-293 cells, FBS and BSA
Format: cell-based
Settings: in the presence of FBS and BSA; read-out: cAMP EC50, nM (SEM, n) GIPR

Row | Structure (SMILES) | EC50 [nM]
1 | CC[C@H](C)[C@H](NC(=O)[C@H](Cc1ccccc1)NC(=O)[C@H](C)NC(=O)C(C)(C)NC(=O)[C@H](CCC(N)=O)NC(=O)[C@H](C)NC(=O)[C@H](CCCCNC(=O)COCCOCCNC(=O)COCCOCCNC(=O)CC[C@H](NC(=O)CCCCCCCCCCCCCCCCCCC(=O)O)C(=O)O)NC(=O)[C@H](CCCCN)NC(=O)[C@H](CC(=O)O)NC(=O)[C@H](CC(C)C)NC(=O)[C@H](CC(C)C)NC(=O)[C@@H](NC(=O)[C@H](CO)NC(=O)[C@H](Cc1ccc(O)cc1)NC(=O)[C@H](CC(=O)O)NC(=O)[C@H](CO)NC(=O)[C@@H](NC(=O)[C@](C)(Cc1ccccc1F)NC(=O)[C@@H](NC(=O)CNC(=O)[C@H](Cc1c[nH]cn1)NC(=O)C(C)(C)NC(=O)[C@@H](N)Cc1ccc(O)cc1)[C@@H](C)O)[C@@H](C)O)[C@@H](C)CC)C(=O)N[C@@H](CCC(=O)O)C(=O)N[C@@H](Cc1ccc(O)cc1)C(=O)N[C@@H](CC(C)C)C(=O)N[C@@H](CC(C)C)C(=O)N[C@@H](CCC(=O)O)C(=O)NCC(=O)NCC(=O)N1CCC[C@H]1C(=O)N[C@@H](CO)C(=O)N[C@@H](CO)C(=O)NCC(=O)N[C@@H](C)C(=O)N1CCC[C@H]1C(=O)N1CCC[C@H]1C(=O)N1CCC[C@H]1C(=O)N[C@@H](CO)C(N)=O [Example 3] (H-Y[Aib]HGT[αMePhe(2-F)]TSDYSILLDKK([AEEA-AEEA-γGlu-C20 diacid])AQ[Aib]AFIEYLLEGGPSSGAPPPS-NH2) | 1.37
2 | CC[C@H](C)[C@H](NC(=O)[C@H](Cc1ccccc1)NC(=O)[C@H](C)NC(=O)C(C)(C)NC(=O)[C@H](CCC(N)=O)NC(=O)[C@H](C)NC(=O)[C@H](CCCCNC(=O)COCCOCCNC(=O)CC[C@H](NC(=O)CCCCCCCCCCCCCCCCCCC(=O)O)C(=O)O)NC(=O)[C@H](CCCCN)NC(=O)[C@H](CC(=O)O)NC(=O)[C@H](CC(C)C)NC(=O)[C@H](CC(C)C)NC(=O)[C@@H](NC(=O)[C@H](CO)NC(=O)[C@H](Cc1ccc(O)cc1)NC(=O)[C@H](CC(=O)O)NC(=O)[C@H](CO)NC(=O)[C@@H](NC(=O)[C@](C)(Cc1ccccc1F)NC(=O)[C@@H](NC(=O)CNC(=O)[C@H](CCC(N)=O)NC(=O)C(C)(C)NC(=O)[C@@H](N)Cc1ccc(O)cc1)[C@@H](C)O)[C@@H](C)O)[C@@H](C)CC)C(=O)N[C@@H](CCC(=O)O)C(=O)N[C@@H](Cc1ccc(O)cc1)C(=O)N[C@@H](CC(C)C)C(=O)N[C@@H](CC(C)C)C(=O)N[C@@H](CCC(=O)O)C(=O)NCC(=O)NCC(=O)N1CCC[C@H]1C(=O)N[C@@H](CO)C(=O)N[C@@H](CO)C(=O)NCC(=O)N[C@@H](C)C(=O)N1CCC[C@H]1C(=O)N1CCC[C@H]1C(=O)N1CCC[C@H]1C(=O)N[C@@H](CO)C(N)=O [Example 4] | 1.37
